Test results taken from PubChem BioAssay AID2060358 (Molecular Pharmacology Branch, DTP, NCI, 2025).
The source made the active and inactive calls. The calls were made as follows: active = viability on the fitted dose curve at most 10% of control; inactive = the rest.

System: 254851-301-R-J1-PDC spheroids, viability % test/control
Experiment: Anticancer human tumor 254851-301-R-J1-PDC patient-derived colon carcinoma cell line growth inhibition [TAK]
Conditions: spheroids with HUVEC and MSC; for IC50: curve of first compound; for viability, T/C: stronger effect = lower value
Text: Combinatorial screen of targeted agents with TAK-243 and ipatasertib in multi-cell type tumor spheroids
A high-throughput screen of multi-cell type tumor spheroids was designed to identify active combinations of targeted small molecules and TAK-243 or ipatasertib. Complex spheroids include a stromal component modeled by human endothelial cells (HUVEC) and fibroblasts modeled by human mesenchymal stem cells (MSCs). The concentration ranges selected for each drug and investigational agent were based upon clinically achievable concentrations if the clinical Cmax of the agent was known.
Compounds. The drugs and investigational agents: TAK-243 (785004), ipatasertib (767898), everolimus (733504), selumetinib (741078), bortezomib (756655), trametinib (758246), ixazomib (758254), vemurafenib (761431), dabrafenib (764134), sapanisertib (764658), alpelisib (765974), and copanlisib (816437), were obtained from the National Cancer Institute (NCI) Developmental Therapeutics Program Chemical Repository. The FDA-approved anticancer drug set is available from the NCI Developmental Therapeutics Program. […] The stock solutions were prepared in dimethyl sulfoxide (DMSO, Sigma-Aldrich, St. Louis, MO, cat. D2650) at 800-fold the tested concentration and stored at -70 degrees C prior to their use. All drugs and investigational agents were tested over a range starting from a high concentration at or near the clinical Cmax and decreasing in half-log increments. If the clinical Cmax for an agent had not been determined, the highest concentration tested was 10 microM.
NCI60 Cell Culture. NCI60 cell lines were obtained from the NCI Developmental Therapeutics Program Tumor Repository. For each lot of cells, the Repository performed Applied Biosystems AmpFLSTR Identifiler testing with PCR amplification to confirm consistency with the published Identifier STR profile for each cell line. Cells were kept in continuous culture for no more than 20 passages. The optimal seeding densities for each of the cell lines at each time point assessed were determined prior to performing the concentration response studies. Briefly, the NCI60 human tumor lines were grown as monolayers in RPMI 1640 medium supplemented with 10% FBS and 2 mmol/L L-glutamine.
An additional 2 lines were from the NCI60 cell line panel including melanomas, MALME-3M and SK-MEL-2. Pooled donor human umbilical vein endothelial cells (HUVEC, Lonza, cat. CC-2519) and human mesenchymal stem cells (hMSC, Lonza, cat. PT-2501) were purchased from Lonza (Walkersville, MD).
PDMR cell lines were grown in complete medium (DC medium): Dulbecco's modified Eagle's medium (DMEM)/F12 supplemented with 5% fetal bovine serum (FBS), 2 mM L-glutamine, 100 U/mL penicillin and 100 µg/ml streptomycin, 0.4 µg/ml hydrocortisone, 10 ng/ml epidermal growth factor (EGF) recombinant human protein, 24 µg/mL adenine, and 0.1 mg/mL primocin. During culture from frozen stock vials, PDMR cells were cultured in the same medium containing 10 µM Y-27632 (see Table 3). The PDCs were cultured in complete DMEM/F12 media without 10 microM Y-27632 dihydrochloride for at least two passages prior to the screen. The pooled donor HUVEC and hMSC were cultured in endothelial cell growth medium 2 (PromoCell, Heidelberg, Germany, cat. C-22011) and mesenchymal stem cell growth medium 2 (PromoCell, cat. C-28009), respectively. For all experiments, HUVEC and hMSC were used at passages </=5.
For the pre-screen, cell seeding densities were determined from a titration spanning the range from 5,000 to 313 cells per well. The mct-spheroids including 60% malignant cells, 25% HUVEC and 15% MSC dispensed as a mixture into U-bottom Ultra-Low Attachment 384-well plates (Corning, NY)
High-throughput Drug Combination Screening.
Prior to their inoculation into 384-well plates, malignant cells, HUVEC, and hMSC were removed from T flasks using TrypLE express (Thermo Fisher Scientific, cat. 12605036) and harvested by centrifugation for 5 min at 233 x g. […]
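For IC50 in this document: spheroids exposed to drugs for seven days before viability readout.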
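For viability, T/C in this document: spheroids exposed to drugs for seven days before viability readout.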

COC1CC2CCC(C)C(O)(O2)C(=O)C(=O)N2CCCCC2C(=O)OC(C(C)CC2CCC(OCCO)C(OC)C2)CC(=O)C(C)C=C(C)C(O)C(OC)C(=O)C(C)CC(C)C=CC=CC=C1C (stereo not given) + CC(C)NCC(C(=O)N1CCN(c2ncnc3c2C(C)CC3O)CC1)c1ccc(Cl)cc1
IC50 (second compound 0.3 µM): > 100 nM
IC50 (second compound 0.949 µM): > 100 nM
IC50 (second compound 3 µM): > 100 nM
IC50 (second compound 9.49 µM): > 100 nM
IC50 (second compound 30 µM): > 100 nM
viability, T/C (second compound 0.3 µM, first compound 0.000316 µM): 108%
viability, T/C (second compound 0.3 µM, first compound 0.001 µM): 117%
viability, T/C (second compound 0.3 µM, first compound 0.00316 µM): 99.9%
viability, T/C (second compound 0.3 µM, first compound 0.01 µM): 99.2%
viability, T/C (second compound 0.3 µM, first compound 0.0316 µM): 96.8%
viability, T/C (second compound 0.3 µM, first compound 0.1 µM): 91.7%
viability, T/C (second compound 0.949 µM, first compound 0.000316 µM): 115%
viability, T/C (second compound 0.949 µM, first compound 0.001 µM): 110%
viability, T/C (second compound 0.949 µM, first compound 0.00316 µM): 100%
viability, T/C (second compound 0.949 µM, first compound 0.01 µM): 104%
viability, T/C (second compound 0.949 µM, first compound 0.0316 µM): 88.1%
viability, T/C (second compound 0.949 µM, first compound 0.1 µM): 91.4%
viability, T/C (second compound 3 µM, first compound 0.000316 µM): 102%
viability, T/C (second compound 3 µM, first compound 0.001 µM): 112%
viability, T/C (second compound 3 µM, first compound 0.00316 µM): 97%
viability, T/C (second compound 3 µM, first compound 0.01 µM): 94.2%
viability, T/C (second compound 3 µM, first compound 0.0316 µM): 92.1%
viability, T/C (second compound 3 µM, first compound 0.1 µM): 95.3%
viability, T/C (second compound 9.49 µM, first compound 0.000316 µM): 90.7%
outcome (second compound 9.49 µM, first compound 0.001 µM): inactive
viability, T/C (second compound 9.49 µM, first compound 0.00316 µM): 98%
viability, T/C (second compound 9.49 µM, first compound 0.01 µM): 95%
viability, T/C (second compound 9.49 µM, first compound 0.0316 µM): 96.2%
viability, T/C (second compound 9.49 µM, first compound 0.1 µM): 85.1%
viability, T/C (second compound 30 µM, first compound 0.000316 µM): 82.7%
viability, T/C (second compound 30 µM, first compound 0.001 µM): 95.2%
viability, T/C (second compound 30 µM, first compound 0.00316 µM): 86.4%
viability, T/C (second compound 30 µM, first compound 0.01 µM): 77%
viability, T/C (second compound 30 µM, first compound 0.0316 µM): 76.4%
viability, T/C (second compound 30 µM, first compound 0.1 µM): 77.2%

Cn1cnc2c(F)c(Nc3ccc(Br)cc3Cl)c(C(=O)NOCCO)cc21 + CC(C)NCC(C(=O)N1CCN(c2ncnc3c2C(C)CC3O)CC1)c1ccc(Cl)cc1
IC50 (second compound 0.3 µM): 1600 nM
IC50 (second compound 0.949 µM): 1610 nM
IC50 (second compound 3 µM): 1630 nM
IC50 (second compound 9.49 µM): 1540 nM
IC50 (second compound 30 µM): 1410 nM
viability, T/C (second compound 0.3 µM, first compound 0.00949 µM): 110%
viability, T/C (second compound 0.3 µM, first compound 0.03 µM): 120%
viability, T/C (second compound 0.3 µM, first compound 0.0949 µM): 110%
viability, T/C (second compound 0.3 µM, first compound 0.3 µM): 108%
viability, T/C (second compound 0.3 µM, first compound 0.949 µM): 77.5%
viability, T/C (second compound 0.3 µM, first compound 3 µM): 16.6%
viability, T/C (second compound 0.949 µM, first compound 0.00949 µM): 111%
viability, T/C (second compound 0.949 µM, first compound 0.03 µM): 108%
viability, T/C (second compound 0.949 µM, first compound 0.0949 µM): 118%
viability, T/C (second compound 0.949 µM, first compound 0.3 µM): 88.7%
viability, T/C (second compound 0.949 µM, first compound 0.949 µM): 78.9%
viability, T/C (second compound 0.949 µM, first compound 3 µM): 19.6%
viability, T/C (second compound 3 µM, first compound 0.00949 µM): 101%
viability, T/C (second compound 3 µM, first compound 0.03 µM): 118%
viability, T/C (second compound 3 µM, first compound 0.0949 µM): 115%
viability, T/C (second compound 3 µM, first compound 0.3 µM): 105%
viability, T/C (second compound 3 µM, first compound 0.949 µM): 79.1%
viability, T/C (second compound 3 µM, first compound 3 µM): 17.6%
viability, T/C (second compound 9.49 µM, first compound 0.00949 µM): 103%
viability, T/C (second compound 9.49 µM, first compound 0.03 µM): 114%
viability, T/C (second compound 9.49 µM, first compound 0.0949 µM): 112%
viability, T/C (second compound 9.49 µM, first compound 0.3 µM): 102%
viability, T/C (second compound 9.49 µM, first compound 0.949 µM): 75.2%
viability, T/C (second compound 9.49 µM, first compound 3 µM): 15.3%
viability, T/C (second compound 30 µM, first compound 0.00949 µM): 84.6%
viability, T/C (second compound 30 µM, first compound 0.03 µM): 92.4%
viability, T/C (second compound 30 µM, first compound 0.0949 µM): 105%
viability, T/C (second compound 30 µM, first compound 0.3 µM): 83.9%
viability, T/C (second compound 30 µM, first compound 0.949 µM): 72.4%
viability, T/C (second compound 30 µM, first compound 3 µM): 8.88%
